Experiments:
[1] = test system: PPARγ2-mice and LacZ-mice; assay: Bupranolol loading test (serum FFA); type: in vivo; settings: fed state, 10 mg/kg intraperitoneal
Method: (A) Plasma lipid parameters (left: total cholesterol, middle: triglyceride (TG), right: free fatty acids (FFA)) in LacZ-mice (white bars) and PPARγ2-mice (black bars) on day 7 after adenoviral administration were measured in the 10 hour fasted state. (B-C) Relative amounts of UCP1 (left), PGC-1α (middle) and HSL (right) in brown adipose tissue (B) and epididymal fat tissue (C) from ad libitum-fed LacZ-mice (white bars) and PPARγ2-mice (black bars) on day 7 after adenoviral administration. (D) A pan-β adrenergic blocker, bupranolol, was injected intraperitoneally into LacZ-mice (open circles) and PPARγ2-mice (closed circles) in the fed state, on day 5 after adenoviral administration, followed by measurement of serum FFA levels. Data were expressed as percentages of serum FFA levels immediately before intraperitoneal bupranolol loading (10 mg/kg of body weight). Date are presented as mean±SD. **P<0.01 and *P<0.05, compared to control mice, by unpaired t test.
Glucose tolerance tests were performed on mice fasted for 10 hours as previously described (Y. Ishigaki et al., Diabetes 54, 322 (2005)). Insulin tolerance tests were performed on ad libitum fed mice. […] Serum FFA levels were measured immediately before and at 30 and 60 min after injection of inraperitoneal bupranolol (10 mg/kg of body weight, Kaken Pharmaceutical Co., Ltd. Tokyo, Japan).

[2] = test system: Male SD rats with high fat diet-induced obesity; assay: Perivagal capsaicin or vehicle 7 days prior to LacZ or PPARγ2 adenovirus; type: in vivo; settings: perivagal capsaicin treatment
Method: Table 1. Afferent vagal activation from the liver is involved in remote effects of hepatic PPARγ2 expression. (Upper Column) Mice were subjected to hepatic vagotomy or sham operation 7 days prior to administration of LacZ or PPARγ2 adenovirus. Resting oxygen consumption (VO2) was measured on day 3 after adenoviral injection. Mice were sacrificed after a 10 hour fast on day 7 after adenoviral injection. (Lower Column) Male SD rats with high fat diet-induced obesity were subjected to application of capsaicin or vehicle to the vagal hepatic branch 7 days prior to administration of LacZ or PPARγ2 adenovirus. Seven days after adenoviral administration, epididymal fat weights were determined. P values: compared to LacZ-mice, by unpaired t test. n.s.: not significant.
Hepatic vagotomy involves dissection of both afferent and efferent vagal branches innervating the liver. To determine whether the remote effects of hepatic PPARγ2 expression are mediated by the afferent vagus, we applied a specific afferent neurotoxin, capsaicin, to the hepatic branch of the vagus of diet-induced obese male SD rats. Seven days after perivagal application of capsaicin or vehicle, we administered recombinant adenovirus encoding LacZ or PPARγ2. […] These observations indicate selective de-afferentation of the hepatic branch of the vagus. […]

[3] = test system: hepatic branch of the vagus; assay: Perivagal capsaicin: vagal nerve immunohistochemistry and transmission electron microscopy; type: in vivo, rats; settings: 7 days after perivagal application
Method: SD rats were treated with perivagal application of vehicle or capsaicin, 7 days prior to removal of the hepatic vagal nerves from vehicle-treated rats (veh) and capsaicin-treated rats (cap), and the esophgeal branch of the posterior vagal trunk from capsaicin-treated rats (eso). (A) Immunohistochemistry of the vagal nerves with anti-calcitonin gene-related peptide (CGRP) and anti-S100 antibodies. Magnification: ×400. The graphs show immunohistological staining intensities and the data are expressed as percentages of the intensities in vehicle-treated vagal nerve. (B) Transmission electron microscopy of the vagal nerves. While myelinated fibers are intact (arrows), unmyelinated fibers have been selectively degraded in perivagal capsaicin-treated nerves (arrowheads). Representative images from two rats of each group are shown.
After 4 weeks of a high-fat diet starting at 5 weeks of age, male SD rats were subjected to selective hepatic vagal afferent blockade. The hepatic branch of this vagal trunk was exposed as described above, then loosely tied with a cotton string immersed with or without capsaicin (Sigma Chemical Co, St Louis, Mo., USA) dissolved in olive oil (5% wt/vol). The cotton string was removed 30 min later and the abdominal incision was closed. Seven days after perivagal application of capsaicin or vehicle, recombinant adenovirus encoding LacZ or PPARγ2, at a dose of 6.5×10^8 plaque forming units (PFU), was injected via the tail vein.
Livers, WAT and BAT were removed and fixed with 10% formalin and embedded in paraffin. Tissue sections were stained with hematoxylin eosin. Total adipocyte areas were traced manually. Brown and white adipocyte diameters were measured in 150 or more cells per mouse in each group. For vagal nerve immunohistochemistry, SD rats were anesthetized with pentobarbiturate (60 mg/kg), and then perfused transcardially with saline and sequentially with 4% paraformaldehyde in 0.2 M phosphate buffer (PB; pH 7.4). […] The intensities of bands were quantified with the NIH image 1.62 program. […]

SMILES	serum FFA ([1]; LacZ-mice)	serum FFA ([1]; PPARγ2-mice)	hepatic PPARγ2 expression-induced decrease in WAT weight [2]	unmyelinated fibers in the vagal hepatic branch (electron microscopy) [3]	Expression of calcitonin gene-related peptide in vagal nerve ([3]; versus vehicle)	immunoreactivity for S100 proteins ([3]; versus vehicle)
Cc1ccc(Cl)c(OCC(O)CNC(C)(C)C)c1 (stereo not drawn) [bupranolol]	no effect	decreased	–	–	–	–
COc1cc(CNC(=O)CCCC/C=C/C(C)C)ccc1O [capsaicin]	–	–	completely blocked	selective degradation	markedly decreased	similar

From patent publication US7815895B2, “Method for activating efferent sympathetic nerves innervating adipose tissues to improve obesity and symptoms associated therewith” (priority 2007, dated 2010)
